Calls of active or inactive are those of the source. No cut-off for these calls is given here.
Tests used:
[1] = system: EJ-28; assay: Induction of cell cycle arrest in human EJ-28 cells assessed as accumulation of cells at sub-G0/G1 phase at 10 uM incubated for 48 hrs by propidium iodide staining based flow cytometry (reference value: 48%); format: functional
[2] = system: EJ-28; assay: Induction of autophagy in human EJ-28 cells assessed as upregulation of Atg12 expression at 5 to 12.5 uM incubated for 24 to 72 hrs by Western blot analysis; format: functional, cell-based; conditions: dose 5-12.5 µM, time 24-72 hrs
[3] = system: EJ-28; assay: Induction of morphological changes in human EJ-28 cells assessed as intracellular vacuolization at 7.5 uM incubated for 24 to 72 hrs by microscopic analysis; format: functional, cell-based; conditions: time 24-72 hrs
[4] = system: EJ-28; assay: Induction of cell cycle arrest in human EJ-28 cells assessed as accumulation of cells at G2/M phase at 10 uM incubated for 48 hrs by propidium iodide staining based flow cytometry (reference value: 20%); format: functional
[5] = system: SW-620; assay: Antiproliferative activity against human SW620 cells assessed as reduction in cell viability at 20 uM measured for 72 hrs by MTT assay; format: functional, cell-based
[6] = system: EJ-28; assay: Induction of apoptosis in human EJ-28 cells at 1.25 to 10 uM by AnnexinV-FITC/propidium iodide staining based flow cytometry analysis; format: functional, cell-based; conditions: dose 1.25-10 µM, time 24-72 hrs, TDE = time-dependent effect
[7] = system: EJ-28; assay: Induction of cell cycle arrest in human EJ-28 cells assessed as accumulation of cells at sub-G0/G1 phase at 2.5 uM incubated for 48 hrs by propidium iodide staining based flow cytometry (reference value: 48%); format: functional
[8] = system: EJ-28; assay: Induction of apoptosis in human EJ-28 cells assessed as upregulation of Bax expression incubated for 24 hrs by Western blotting analysis; format: functional, cell-based
[9] = system: EJ-28; assay: Induction of apoptosis in human EJ-28 cells assessed as upregulation of PARP expression incubated for 48 to 72 hrs by Western blotting analysis; format: functional, cell-based; conditions: time 48-72 hrs
[10] = system: A549; assay: Cytotoxicity against human A549 cells assessed inhibition of cell growth incubated for 72 hrs by MTT assay; format: functional, cell-based; conditions: A549, 72 h
[11] = system: EJ-28; assay: Induction of apoptosis in human EJ-28 cells assessed as upregulation of cleaved bid expression incubated for 24 hrs by Western blotting analysis; format: functional, cell-based
[12] = system: EJ-28; assay: Induction of cell cycle arrest in human EJ-28 cells assessed as accumulation of cells at S phase at 2.5 uM incubated for 48 hrs by propidium iodide staining based flow cytometry (reference value: 30%); format: functional
[13] = system: EJ-28; assay: Induction of cell cycle arrest in human EJ-28 cells assessed as accumulation of cells at S phase at 10 uM incubated for 48 hrs by propidium iodide staining based flow cytometry (reference value: 30%); format: functional
[14] = Toxicity in Zebrafish embryo assessed as mortality at 12.5 to 50 uM administered for 4 hrs post fertilization and measured after 6 days post fertilization; design: species or system Danio rerio; conditions: in vivo, 144 h, dose 12.5-50 µM, time 6 day
[15] = system: EJ-28; assay: Induction of apoptosis in human EJ-28 cells assessed as upregulation of Bax expression incubated for 48 to 72 hrs by Western blotting analysis; format: functional, cell-based; conditions: time 48-72 hrs
[16] = system: EJ-28; assay: Induction of apoptosis in human EJ-28 cells assessed as upregulation of Bcl-xL expression incubated for 24 hrs by Western blotting analysis; format: functional, cell-based
[17] = system: HT-1080; assay: Antiproliferative activity against human HT-1080 cells assessed as reduction in cell viability at 20 uM measured for 72 hrs by MTT assay; format: functional, cell-based
[18] = Toxicity in Zebrafish embryo assessed as body curvature at 12.5 uM administered for 4 hrs post fertilization and measured after 3 days post fertilization; design: species or system Danio rerio; conditions: in vivo, 72 h, time 3 day
[19] = Selectivity index, ratio of IC50 for cytotoxicity against human NHDF cells to IC50 for cytotoxicity against human A549 cells; format: toxicity, cell-based; conditions: NHDF cells and A549 cells, read-out: Ratio IC50
[20] = system: EJ-28; assay: Anticancer activity against human EJ-28 cells cultured as 3D spheroids assessed as decrease in spheroid volume at 5 to 20 uM measured upto 5 days by fluorescence microscopic analysis; format: functional, cell-based; conditions: dose 5-20 µM, time <= 5.0 day
[21] = system: HEK293; assay: Cytotoxicity against HEK293 cells expressing EGFR assessed as inhibition of cell growth incubated for 24 to 72 hrs; format: toxicity, cell-based; conditions: human, time 24-72 hrs
[22] = Toxicity in Zebrafish embryo assessed as mortality at 12.5 to 50 uM administered for 4 hrs post fertilization and measured after 72 hours post fertilization; design: species or system Danio rerio; conditions: in vivo, dose 12.5-50 µM
[23] = system: EJ-28; assay: Induction of autophagy in human EJ-28 cells assessed as downregulation of EGFR expression at 5 to 12.5 uM incubated for 24 hrs by Western blot analysis; format: functional, cell-based; conditions: dose 5-12.5 µM
[24] = Toxicity in Zebrafish embryo assessed as delay in hatching at 12.5 to 50 uM administered for 4 hrs post fertilization and measured after 72 hours post fertilization; design: species or system Danio rerio; conditions: in vivo, dose 12.5-50 µM
[25] = Toxicity in Zebrafish embryo assessed as adverse phenotype at 12.5 to 50 uM administered for 4 hrs post fertilization and measured after 6 days post fertilization; design: species or system Danio rerio; conditions: in vivo, 144 h, dose 12.5-50 µM, time 6 day
[26] = system: MCF7; assay: Antiproliferative activity against human MCF7 cells assessed as reduction in cell viability at 20 uM measured for 72 hrs by MTT assay; format: functional, cell-based
[27] = system: EJ-28; assay: Induction of autophagy in human EJ-28 cells assessed as upregulation of Beclin-1 expression at 5 to 12.5 uM incubated for 24 to 72 hrs by Western blot analysis; format: functional, cell-based; conditions: dose 5-12.5 µM, time 24-72 hrs
[28] = system: EJ-28; assay: Induction of apoptosis in human EJ-28 cells incubated for 24 to 72 hrs by AnnexinV-FITC/propidium iodide staining based flow cytometry analysis; format: functional, cell-based; conditions: dose 1.25-10 µM, time 24-72 hrs
[29] = system: EJ-28; assay: Induction of autophagy in human EJ-28 cells assessed as autophagic flux at 5 to 12.5 uM incubated for 36 to 48 hrs by flow cytometry analysis; format: functional, cell-based; conditions: dose 5-12.5 µM, time 36-48 hrs
[30] = system: EJ-28; assay: Induction of apoptosis in human EJ-28 cells assessed as downregulation of procaspase-3 expression incubated for 24 to 72 hrs by Western blotting analysis; format: functional, cell-based; conditions: time 24-72 hrs
[31] = Toxicity in Zebrafish embryo assessed as mild bradycardia at 50 uM administered for 4 hrs post fertilization and measured after 3 days post fertilization; design: species or system Danio rerio; conditions: in vivo, 72 h, time 3 day
[32] = system: SW-620; assay: Cytotoxicity against human SW620 cells assessed inhibition of cell growth incubated for 72 hrs by MTT assay; format: functional, cell-based; conditions: SW-620, 72 h
[33] = system: EJ-28; assay: Anticancer activity against human EJ-28 cells cultured as 3D spheroids assessed as decrease in spheroid size at 5 to 20 uM measured upto 5 days by fluorescence microscopic analysis; format: functional, cell-based; conditions: dose 5-20 µM, time <= 5.0 day
[34] = Cytotoxicity against human NHDF cells assessed inhibition of cell growth incubated for 72 hrs by MTT assay; format: toxicity, cell-based
[35] = system: EJ-28; assay: Induction of cell cycle arrest in human EJ-28 cells assessed as accumulation of cells at G2/M phase at 1.25 uM incubated for 48 hrs by propidium iodide staining based flow cytometry (reference value: 20%); format: functional
[36] = system: T-24; assay: Induction of morphological changes in human T24 cells assessed as intracellular vacuolization at 7.5 uM incubated for 48 hrs by microscopic analysis; format: functional, cell-based
[37] = system: EJ-28; assay: Induction of apoptosis in human EJ-28 cells assessed as upregulation of NOXA expression incubated for 24 hrs by Western blotting analysis; format: functional, cell-based
[38] = system: EJ-28; assay: Induction of apoptosis in human EJ-28 cells assessed as upregulation of PUMA expression incubated for 48 hrs by Western blotting analysis; format: functional, cell-based

O=[N+]([O-])c1cccc(/C=C/c2cc(-c3cc(Cl)ccc3O)n(-c3ccccc3)n2)c1
Activity [1]: 58%
Activity [2]: Active
Activity [3]: Active
Activity [4]: 17%
Activity [5]: Active
Activity [6]: Tde
Activity [7]: 57%
Activity [8]: inactive
Activity [9]: inactive
IC50 [10]: 15.1 µM
Activity [11]: Active
Activity [12]: 16%
Activity [13]: 23%
Activity [14]: Non-Toxic
Activity [15]: Active
Activity [16]: inactive
Activity [17]: Active
Activity [18]: Non-Toxic
selectivity ratio [19]: 2.6
Activity [20]: Active
Activity [21]: Non-Toxic
Activity [22]: Non-Toxic
Activity [23]: Active
Activity [24]: Non-Toxic
Activity [25]: Non-Toxic
Activity [26]: Active
Activity [27]: inactive
Activity [28]: Dose-Dependent Effect
Activity [29]: Active
Activity [30]: Active
Activity [31]: Toxic
IC50 [32]: 10 µM
Activity [33]: Active
IC50 at 72 h [34]: 39.7 µM
Activity [35]: 18%
Activity [36]: Active
Activity [37]: Active
Activity [38]: Active

Source: ChEMBL document CHEMBL5360581, “Discovery of a novel dual functional phenylpyrazole-styryl hybrid that induces apoptotic and autophagic cell death in bladder cancer cells” (Eur J Med Chem, 2023)
